Measurements as given in BindingDB's records for doi:10.1021/jm8003587 (Tsukuba Research Institute, 2008).

Biological target: T1, Neuropeptide Y receptor type 5 (Homo sapiens, UniProt Q15761)
T1 sequence (Q15761 whole entry): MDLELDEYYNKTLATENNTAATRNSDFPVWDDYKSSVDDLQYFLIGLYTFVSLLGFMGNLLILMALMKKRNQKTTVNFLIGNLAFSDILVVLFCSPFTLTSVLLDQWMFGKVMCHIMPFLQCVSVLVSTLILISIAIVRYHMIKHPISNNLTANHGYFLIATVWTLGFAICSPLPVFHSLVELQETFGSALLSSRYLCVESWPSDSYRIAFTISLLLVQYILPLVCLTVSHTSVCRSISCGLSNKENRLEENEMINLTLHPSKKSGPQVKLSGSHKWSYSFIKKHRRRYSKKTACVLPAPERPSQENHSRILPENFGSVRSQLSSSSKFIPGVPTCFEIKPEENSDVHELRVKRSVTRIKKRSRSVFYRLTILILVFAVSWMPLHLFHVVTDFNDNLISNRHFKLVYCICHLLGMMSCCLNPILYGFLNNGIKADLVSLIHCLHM
Assay: Displacement of [125I]PYY from human recombinant neuropeptide Y5 receptor expressed in thymidine kinase deficient […] cells

COc1cccc2c1C(C1C(=O)CC(C)(C)CC1=O)C1=C(CC(C)(C)CC1=O)O2 (stereo unspecified) [9-(2-Hydroxy-4,4-dimethyl-6-oxocyclohexyl)-8-methoxy-3,3-dimethyl-2,3,4,9-tetrahydro-1H-xanthen-1-one]
Ki: > 1000 nM
